pIC50: −log10 of the molar value.
Experiments:
Format in all cases: cell-based
PLK1 = biological target: T1, PLK1 (Homo sapiens, UniProt P53350); assay: Luciferase assay for PLK1 in HeLa LgBit (Plk1-HiBit KI) cell line; settings: 300 nM compound, luminescence after 9 hours
T1 construct: endogenous in cells; host or cells: HeLa LgBit (Plk1-HiBit KI): HeLa stably expressing LgBit, with a CRISPR/Cas9 knock-in of HiBit at the endogenous PLK1 locus
Summary of the method: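 HeLa cells stably expressing LgBit, with HiBit knocked in at the C-terminus of endogenous Plk1, released from a 24 h 2 mM thymidine block and grown 18 h. Endurazine added, then compound at 300 nM; luminescence tracked in real time, expressed as ratio to DMSO.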

NCI-H526 cell line = assay: Cell viability assay for H526 cell (EZ-Cytox); settings: Homo sapiens, NCI-H526, 120 h; H526 cells, 5 days, 3000 nM to 0.46 nM
Summary of the method: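 NCI-H526 cells were exposed to compound in CO2 incubator culture for 5 days. Viability was read by EZ-Cytox absorbance at 450 nm after 3 min shaking, giving IC50 values.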

MRC-5 cell line = assay: Cell viability assay for MRC-5 cell line (EZ-Cytox); settings: Homo sapiens, MRC5, 120 h; MRC-5 normal cell line, 5 days, 10000 nM to 1.52 nM; N.D. = no cytotoxicity until 10 μM; read-out: Activity: IC50 value of Exemplary Compound to MRC-5 cell line
Protocol: 4. Cell Viability Assay for MRC-5 Cell Line
(1) Culture of MRC-5 Cell Line
Passage of cultured cells was maintained within P15.
(2) Treatment of Compounds of the Present Invention
Then, it was cultured in 37° C.
(3) Cytotoxicity Experiment
CO2 incubator for 4 hours.

T1 sequence (P53350 whole entry): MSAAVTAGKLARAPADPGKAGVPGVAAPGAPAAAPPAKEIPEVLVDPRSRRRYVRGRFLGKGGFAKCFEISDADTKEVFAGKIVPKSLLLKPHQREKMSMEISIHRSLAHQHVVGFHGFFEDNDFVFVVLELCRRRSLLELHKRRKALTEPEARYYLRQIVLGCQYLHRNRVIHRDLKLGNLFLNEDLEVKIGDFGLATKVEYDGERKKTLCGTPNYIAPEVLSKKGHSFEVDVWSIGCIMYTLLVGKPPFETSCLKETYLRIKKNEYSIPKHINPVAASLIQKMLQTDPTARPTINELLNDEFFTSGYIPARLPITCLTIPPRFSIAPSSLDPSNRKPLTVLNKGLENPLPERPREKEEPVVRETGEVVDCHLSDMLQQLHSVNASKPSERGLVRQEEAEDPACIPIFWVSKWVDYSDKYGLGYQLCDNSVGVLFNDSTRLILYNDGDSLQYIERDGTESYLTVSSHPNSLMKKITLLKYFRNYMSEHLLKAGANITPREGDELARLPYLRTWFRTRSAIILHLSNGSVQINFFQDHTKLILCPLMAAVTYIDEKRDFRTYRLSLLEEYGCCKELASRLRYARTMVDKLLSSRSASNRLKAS

Row | Activity: ratio of the luminescense value of each Exemplary Compound treatment group to DMSO treatment group (PLK1) | SMILES | pIC50 (NCI-H526 cell line) | pIC50 (MRC-5 cell line)
1 | ++ (++<0.6) | COc1cc(C(=O)NN2CCN(C3CCN(c4ccc5c(c4)C(=O)N(C4CCC(=O)NC4=O)C5=O)C3)CC2)ccc1Nc1ncc2c(n1)N(C1CCCC1)CC(F)(F)C(=O)N2C (stereo not drawn) [Compound 56, 4-((9-cyclopentyl-7,7-difluoro-5-methyl-6-oxo-6,7,8,9-tetrahydro-5H-pyrimido[4,5-b][1,4]diazepin-2-yl)amino)-N-(4-(1-(2-(2,6-dioxopiperidin-3-yl)-1,3-dioxoisoindolin-5-yl)pyrrolidin-3-yl)piperazin-1-yl)-3-methoxybenzamide] | > 7.52 | < 5.00
2 | ++ (++<0.6) | COc1cc(C(=O)N[C@H]2CC[C@H](OC3CCN(c4cccc5c4C(=O)N(C4CCC(=O)NC4=O)C5=O)CC3)CC2)c(F)cc1Nc1ncc2c(n1)N(C1CCCC1)CC(F)(F)C(=O)N2C (stereo partly drawn) [Compound 115, 4-((9-cyclopentyl-7,7-difluoro-5-methyl-6-oxo-6,7,8,9-tetrahydro-5H-pyrimido[4,5-b][1,4]diazepin-2-yl)amino)-N-((1r,4r)-4-((1-(2-(2,6-dioxopiperidin-3-yl)-1,3-dioxoisoindolin-4-yl)piperidin-4-yl)oxy)cyclohexyl)-2-fluoro-5-methoxybenzamide] | > 6.40 | < 5.00
3 | ++ (++<0.6) | COc1cc(C(=O)NN2CC(CN3CCN(c4cccc5c4C(=O)N(C4CCC(=O)NC4=O)C5=O)CC3)C2)ccc1Nc1ncc2c(n1)N(C(C)C)CC(F)(F)C(=O)N2C (stereo not drawn) [Compound 161, 4-((7,7-difluoro-9-isopropyl-5-methyl-6-oxo-6,7,8,9-tetrahydro-5H-pyrimido[4,5-b][1,4]diazepin-2-yl)amino)-N-(3-((4-(2-(2,6-dioxopiperidin-3-yl)-1,3-dioxoisoindolin-4-yl)piperazin-1-yl)methyl)azetidin-1-yl)-3-methoxybenzamide] | > 7.52 | < 5.00
4 | ++ (++<0.6) | COc1cc(C(=O)NC2CC3(CCN(CC4CCN(c5ccc6c(c5)C(=O)N(C5CCC(=O)NC5=O)C6=O)CC4)CC3)C2)ccc1Nc1ncc2c(n1)N(C1CCCC1)CC(F)(F)C(=O)N2C (stereo not drawn) [Compound 137, 4-((9-cyclopentyl-7,7-difluoro-5-methyl-6-oxo-6,7,8,9-tetrahydro-5H-pyrimido[4,5-b][1,4]diazepin-2-yl)amino)-N-(7-((1-(2-(2,6-dioxopiperidin-3-yl)-1,3-dioxoisoindolin-5-yl)piperidin-4-yl)methyl)-7-azaspiro[3.5]nonan-2-yl)-3-methoxybenzamide] | > 7.52 | 4.77
5 | ++ (++<0.6) | COc1cc(C(=O)NC2CN(CC3CCN(c4ccc5c(c4)C(=O)N(C4CCC(=O)NC4=O)C5=O)CC3)C2)ccc1Nc1ncc2c(n1)N(C1CCCC1)CC(F)(F)C(=O)N2C (stereo not drawn) [Compound 139, 4-((9-cyclopentyl-7,7-difluoro-5-methyl-6-oxo-6,7,8,9-tetrahydro-5H-pyrimido[4,5-b][1,4]diazepin-2-yl)amino)-N-(1-((1-(2-(2,6-dioxopiperidin-3-yl)-1,3-dioxoisoindolin-5-yl)piperidin-4-yl)methyl)azetidin-3-yl)-3-methoxybenzamide] | > 7.30 | < 5.00
6 | +++ (+++: <0.3) | COc1cc(C(=O)NC2CCN(C(=O)CCCOc3cccc4c3C(=O)N(C3CCC(=O)NC3=O)C4=O)CC2)ccc1Nc1ncc2c(n1)N(C1CCCC1)CC(F)(F)C(=O)N2C (stereo not drawn) [Compound 31, 4-((9-cyclopentyl-7,7-difluoro-5-methyl-6-oxo-6,7,8,9-tetrahydro-5H-pyrimido[4,5-b][1,4]diazepin-2-yl)amino)-N-(1-(4-((2-(2,6-dioxopiperidin-3-yl)-1,3-dioxoisoindolin-4-yl)oxy)butanoyl)piperidin-4-yl)-3-methoxybenzamide] | > 7.00 | < 5.00
7 | ++ (++<0.6) | COc1cc(C(=O)NC2CCN(C(=O)CCN3CCN(c4ccc(F)c5c4C(=O)N(C4CCC(=O)NC4=O)C5=O)CC3)CC2)ccc1Nc1ncc2c(n1)N(C1CCCC1)CC(F)(F)C(=O)N2C (stereo not drawn) [Compound 142, 4-((9-cyclopentyl-7,7-difluoro-5-methyl-6-oxo-6,7,8,9-tetrahydro-5H-pyrimido[4,5-b][1,4]diazepin-2-yl)amino)-N-(1-(3-(4-(2-(2,6-dioxopiperidin-3-yl)-7-fluoro-1,3-dioxoisoindolin-4-yl)piperazin-1-yl)propanoyl)piperidin-4-yl)-3-methoxybenzamide] | > 7.00 | < 5.00
8 | ++ (++<0.6) | COc1cc(C(=O)NN2CCN(C3CCN(c4cccc5c4C(=O)N(C4CCC(=O)NC4=O)C5=O)C3)CC2)ccc1Nc1ncc2c(n1)N(C1CCCC1)CC(F)(F)C(=O)N2C (stereo not drawn) [Compound 51, 4-((9-cyclopentyl-7,7-difluoro-5-methyl-6-oxo-6,7,8,9-tetrahydro-5H-pyrimido[4,5-b][1,4]diazepin-2-yl)amino)-N-(4-(1-(2-(2,6-dioxopiperidin-3-yl)-1,3-dioxoisoindolin-4-yl)pyrrolidin-3-yl)piperazin-1-yl)-3-methoxybenzamide] | > 7.52 | < 5.00
9 | ++ (++<0.6) | COc1cc(C(=O)NN2CCC(CCN3CCN(c4ccc5c(c4)C(=O)N(C4CCC(=O)NC4=O)C5=O)CC3)C2)ccc1Nc1ncc2c(n1)N(C1CCCC1)CC(F)(F)C(=O)N2C (stereo not drawn) [Compound 149, 4-((9-cyclopentyl-7,7-difluoro-5-methyl-6-oxo-6,7,8,9-tetrahydro-5H-pyrimido[4,5-b][1,4]diazepin-2-yl)amino)-N-(3-(2-(4-(2-(2,6-dioxopiperidin-3-yl)-1,3-dioxoisoindolin-5-yl)piperazin-1-yl)ethyl)pyrrolidin-1-yl)-3-methoxybenzamide] | > 7.30 | < 5.00
10 | +++ (+++: <0.3) | COc1cc(C(=O)NN2CCN(C3CCN(c4cccc5c4C(=O)N(C4CCC(=O)NC4=O)C5=O)CC3(F)F)CC2)ccc1Nc1ncc2c(n1)N(C(C)C)CC(F)(F)C(=O)N2C (stereo not drawn) [Compound 167, 4-((7,7-difluoro-9-isopropyl-5-methyl-6-oxo-6,7,8,9-tetrahydro-5H-pyrimido[4,5-b][1,4]diazepin-2-yl)amino)-N-(4-(1-(2-(2,6-dioxopiperidin-3-yl)-1,3-dioxoisoindolin-4-yl)-3,3-difluoropiperidin-4-yl)piperazin-1-yl)-3-methoxybenzamide] | > 7.52 | < 5.00
11 | ++ (++<0.6) | COc1cc(C(=O)N[C@H]2CC[C@H](N3CCN(c4ccc5c(c4)C(=O)N(C4CCC(=O)NC4=O)C5=O)CC3)CC2)ccc1Nc1ncc2c(n1)N(C(C)C)CC(F)(F)C(=O)N2C (stereo partly drawn) [Compound 150, 4-((7,7-difluoro-9-isopropyl-5-methyl-6-oxo-6,7,8,9-tetrahydro-5H-pyrimido[4,5-b][1,4]diazepin-2-yl)amino)-N-((1r,4r)-4-(4-(2-(2,6-dioxopiperidin-3-yl)-1,3-dioxoisoindolin-5-yl)piperazin-1-yl)cyclohexyl)-3-methoxybenzamide] | > 7.30 | 4.71
12 | +++ (+++: <0.3) | COc1cc(C(=O)N[C@H]2CC[C@H](N(C)CCN3CCN(c4cccc5c4C(=O)N(C4CCC(=O)NC4=O)C5=O)CC3)CC2)ccc1Nc1ncc2c(n1)N(C1CCCC1)CC(F)(F)C(=O)N2C (stereo partly drawn) [Compound 129, 4-((9-cyclopentyl-7,7-difluoro-5-methyl-6-oxo-6,7,8,9-tetrahydro-5H-pyrimido[4,5-b][1,4]diazepin-2-yl)amino)-N-((1r,4r)-4-((2-(4-(2-(2,6-dioxopiperidin-3-yl)-1,3-dioxoisoindolin-4-yl)piperazin-1-yl)ethyl)(methyl)amino)cyclohexyl)-3-methoxybenzamide] | > 7.52 | 4.76
13 | ++ (++<0.6) | COc1cc(C(=O)NN2CCN(C(=O)CCC3CCN(c4cccc5c4CN(C4CCC(=O)NC4=O)C5=O)CC3)CC2)ccc1Nc1ncc2c(n1)N(C(C)C)CC(F)(F)C(=O)N2C (stereo not drawn) [Compound 58, 4-((7,7-difluoro-9-isopropyl-5-methyl-6-oxo-6,7,8,9-tetrahydro-5H-pyrimido[4,5-b][1,4]diazepin-2-yl)amino)-N-(4-(3-(1-(2-(2,6-dioxopiperidin-3-yl)-1-oxoisoindolin-4-yl)piperidin-4-yl)propanoyl)piperazin-1-yl)-3-methoxybenzamide] | > 7.30 | < 5.00
